Results published in patent publication US9481910B2, “Methods and compositions for the detection of drug resistant BRAF isoforms” (MEMORIAL SLOAN-KETTERING CANCER CENTER, priority 2011, dated 2016).
“Also recorded” adds a separate entry of the source.

Columns and labels:
[1] = test system: ERK signaling (pMEK, pERK); experiment: ERK signaling (pMEK/pERK Western blot) in SKMEL-239 parental cells and PLX4032-resistant clones
Experimental: Western blotting and receptor tyrosine kinase (RTK) arrays. Western blot analysis was performed as previously described13. The following antibodies were used: p217/p221-MEK (pMEK), p202/p204-ERK (pERK), MEK, ERK, (Cell Signaling), V5 tag (Invitrogen), BRAF, cyclin Flag tag, β-actin (Sigma).

[2] = test system: HT-29 cells (colorectal; BRAF(V600E)) expressing NRAS(G12V); experiment: MEK/ERK in HT-29 cells transfected with HA-tagged NRAS(G12V); assay type: cell-based; conditions: various concentrations, 1 h
p61 BRAF(V600E/R509H) = p61 BRAF(V600E/R509H) (Homo sapiens, UniProt P15056, DEL169-380/R509H/V600E); experiment: ERK signaling in 293H cells expressing p61 BRAF(V600E/R509H); assay type: cell-based; conditions: 2 μM for 1 hour
p61 BRAF(V600E/R509H), sequence (P15056 with tags, fused parts or gaps DEL169-380/R509H/V600E): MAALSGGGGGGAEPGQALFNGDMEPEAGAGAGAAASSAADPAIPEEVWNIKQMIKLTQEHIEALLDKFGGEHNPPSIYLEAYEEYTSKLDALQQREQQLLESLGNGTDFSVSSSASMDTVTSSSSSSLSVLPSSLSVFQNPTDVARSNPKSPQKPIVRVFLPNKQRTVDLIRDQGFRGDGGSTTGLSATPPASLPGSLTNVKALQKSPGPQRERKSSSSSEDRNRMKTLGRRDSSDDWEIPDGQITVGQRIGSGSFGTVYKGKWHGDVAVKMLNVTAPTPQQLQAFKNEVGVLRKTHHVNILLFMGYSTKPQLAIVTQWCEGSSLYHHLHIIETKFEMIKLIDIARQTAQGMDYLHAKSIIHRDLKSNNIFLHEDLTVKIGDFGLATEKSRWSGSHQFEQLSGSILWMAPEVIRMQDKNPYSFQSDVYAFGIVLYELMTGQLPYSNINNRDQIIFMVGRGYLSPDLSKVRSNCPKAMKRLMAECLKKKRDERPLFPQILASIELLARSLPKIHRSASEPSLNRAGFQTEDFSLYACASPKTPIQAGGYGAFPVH
Experimental: (§1) The BRAF inhibitor, PLX403219 (vemurafenib) was obtained from Plexxikon Inc. PD0325901 was synthesized in the MSKCC Organic Synthesis Core Facility. Flag-tagged BRAF constructs have been described previously4. All other plasmids were created using standard cloning methods, with pcDNA3.1 (Invitrogen) as a vector. Mutations were introduced using the site-directed Mutagenesis Kit (Stratagene). For transfection studies, cells were seeded on 35 mm or 100 mm plates and transfected the following day using Lipofectamine 2000 (Invitrogen). Cells were collected 24 hours later for subsequent analysis. cDNA Preparation and PCR.

p61 BRAF(V600E) [3] = target: T1, p61 BRAF(V600E) (Homo sapiens, UniProt P15056, DEL169-380/V600E); experiment: ERK signaling in SKMEL-239 or HT-29 cells ectopically expressing p61 BRAF(V600E); assay type: cell-based; conditions: 1 hour
T1 sequence (P15056 with tags, fused parts or gaps DEL169-380/V600E): as the sequence (P15056 with tags, fused parts or gaps DEL169-380/R509H/V600E) above, with H297R counted along it
Experimental: as §1

SKMEL-239 cells = experiment: Cell cycle and cell death (sub-G1 peak by FACS) in SKMEL-239 parental cells and resistant clones; assay type: cell-based, human
Experimental: (§2) For proliferation assays, cells were plated in 6-well plates, and 24 hours later were treated with varying concentrations of inhibitors, or vehicle control, as indicated. IC50 values were calculated using Graph Pad Prism v.5. For cell cycle and apoptosis studies, cells were seeded in 6-well dishes the day prior to drug treatment. For analysis, both adherent and floating cells were harvested and stained with ethidium bromide as described previously 21.

BRAF(V600E/R509H) = BRAF(V600E/R509H) (Homo sapiens, UniProt P15056, R509H/V600E); experiment: ERK signaling in 293H cells expressing the dimerization mutant BRAF(V600E/R509H); assay type: cell-based; conditions: 2 μM for 1 hour
BRAF(V600E/R509H), sequence (P15056 whole entry R509H/V600E): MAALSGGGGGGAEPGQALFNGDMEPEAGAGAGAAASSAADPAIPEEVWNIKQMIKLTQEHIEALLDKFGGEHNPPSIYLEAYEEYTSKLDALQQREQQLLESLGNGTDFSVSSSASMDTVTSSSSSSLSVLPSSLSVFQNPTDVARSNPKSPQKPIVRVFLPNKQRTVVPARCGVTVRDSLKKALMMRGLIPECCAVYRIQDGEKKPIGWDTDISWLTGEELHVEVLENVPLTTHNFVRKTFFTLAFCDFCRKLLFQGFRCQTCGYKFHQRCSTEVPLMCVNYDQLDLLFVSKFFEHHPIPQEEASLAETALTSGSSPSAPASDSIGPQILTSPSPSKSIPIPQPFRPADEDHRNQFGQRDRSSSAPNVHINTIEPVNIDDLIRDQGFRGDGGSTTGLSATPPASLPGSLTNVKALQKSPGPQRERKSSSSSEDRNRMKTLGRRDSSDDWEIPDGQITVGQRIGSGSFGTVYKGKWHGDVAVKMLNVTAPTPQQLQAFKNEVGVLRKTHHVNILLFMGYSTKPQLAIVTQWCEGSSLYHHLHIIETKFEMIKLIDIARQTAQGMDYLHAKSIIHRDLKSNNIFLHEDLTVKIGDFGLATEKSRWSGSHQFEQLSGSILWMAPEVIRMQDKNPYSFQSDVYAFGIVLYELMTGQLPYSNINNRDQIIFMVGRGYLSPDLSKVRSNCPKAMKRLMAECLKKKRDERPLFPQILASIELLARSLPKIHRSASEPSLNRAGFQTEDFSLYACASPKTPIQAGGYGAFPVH
Experimental: as §1

p61 BRAF(V600E) [4] = target: T1, p61 BRAF(V600E); experiment: In vitro kinase assay of immunoprecipitated V5-tagged p61 BRAF(V600E), inactive MEK(K97R) as substrate; assay type: biochemical; conditions: 200 μM ATP, 30° C., 20 min
Experimental: V5-tagged full length BRAF(V600E) or V5-tagged p61 BRAF(V600E) were ectopically expressed in 293H cells. 24 hours later, cells were harvested, lysed and BRAF was immunoprecipitated using a V5 antibody. […] Kinase activity was estimated by western blot for pMEK.
Immunoprecipitations and kinase assays. Cells were lysed in lysis buffer (50 mM Tris, pH7.5, 1% NP40, 150 mM NaCl, 10% glycerol, 1 mM EDTA) supplemented with protease and phosphatase inhibitor cocktail tablets (Roche). Immunoprecipitations were performed at 4° C. for 4 h, followed by three washes with lysis buffer and, in cases of subsequent kinase assay, one final wash with kinase buffer (25 mM Tris, pH 7.5, 10 mM MgCl2). […] The kinase reaction was terminated by adding sample buffer and boiling. Kinase activity was determined by immunoblotting for pMEK.

[5] = test system: wild-type (+/+), BRAF−/− or CRAF−/− MEFs; experiment: MEK/ERK activation in wild-type, BRAF knockout or CRAF knockout MEFs; assay type: cell-based; conditions: indicated concentrations, 1 h
[6] = test system: HT-29 cells (colorectal; BRAF(V600E)) expressing HER2 (V654E); experiment: MEK/ERK in HT-29 cells transfected with activated HER2 (V654E); assay type: cell-based; conditions: various concentrations, 1 h
p61 BRAF(V600E) [7] = target: T1, p61 BRAF(V600E); experiment: ERK signaling in 293H cells ectopically expressing p61 BRAF(V600E); assay type: cell-based; conditions: 293H cells expressing p61 BRAF(V600E), 2 μM for 1 hour
Experimental: as §1

[8] = test system: PLX4032-resistant SKMEL-239 clones; experiment: Sensitivity of PLX4032-resistant SKMEL-239 clones to MEK inhibitor (5-day proliferation, pMEK/pERK dose-response); assay type: cell-based, human; conditions: all five resistant clones; slightly higher doses than in the parental cell line
Experimental: as §2

[9] = parental SKMEL-239, 2 μM PLX4032

Row | inhibition of ERK signaling (p61 BRAF(V600E/R509H)) | sensitivity of ERK signaling (BRAF(V600E/R509H)) | inhibition of kinase activity in vitro (pMEK Western blot) (p61 BRAF(V600E) [4]) | sensitivity of ERK signaling (pMEK, pERK) (p61 BRAF(V600E) [7]) | Compound | sensitivity of ERK signaling to the drug ([1]; PLX4032-resistant SKMEL-239 cells) | IC50 for pMEK inhibition relative to the parental cell line ([1]; SKMEL-239 C3 clone, 1 hour) | pMEK IC50 relative to the parental clone ([1]; SKMEL-239 C5 clone, 1 hour) [fold] | inhibition of ERK signaling [1, 9] | sensitivity of MEK/ERK to RAF inhibitor [2] | inhibition of ERK signaling (p61 BRAF(V600E) [3]; HT-29 cells expressing p61 BRAF(V600E)) | inhibition of ERK signaling (p61 BRAF(V600E) [3]; parental SKMEL-239 cells expressing p61 BRAF(V600E)) | cell death (sub-G1 peak by FACS) (SKMEL-239 cells; five PLX4032-resistant SKMEL-239 clones) | cell cycle effect (SKMEL-239 cells; [9]) | cell death (sub-G1 peak by FACS) (SKMEL-239 cells; parental SKMEL-239 cells) | MEK/ERK activation [5] | sensitivity of MEK/ERK to RAF inhibitor [6] | sensitivity to the MEK inhibitor [8]
1 | inhibited | remained sensitive | can be inhibited in vitro | resistant; also recorded: insensitive | CCCS(=O)(=O)Nc1ccc(F)c(C(=O)c2c[nH]c3ncc(-c4ccc(Cl)cc4)cc23)c1F [PLX4032] | decreased sensitivity | more than 100 fold | 4.5 | effectively inhibits ERK signaling | insensitive | failure of PLX4032 to effectively inhibit ERK signaling | failure of PLX4032 to effectively inhibit ERK signaling | not in the five resistant clones | accumulation of cells in G1 | significant induction of cell death; also recorded: induced cell death | MEK/ERK activation does not require BRAF | insensitive | –
2 | – | – | – | – | O=C(NOC[C@H](O)CO)c1ccc(F)c(F)c1Nc1ccc(I)cc1F [PD032590113] | – | – | – | – | – | – | – | – | – | – | – | – | retained sensitivity
